According to US10265321B2, “Uses of salt-inducible kinase (SIK) inhibitors” (Dana-Farber Cancer Institute, Inc., priority 2014, dated 2019):

Experiments:
[1] = test system: naïve splenic CD4+ T cells differentiated to Treg or Tr1; test: Treg and Tr1 T cell differentiation, viability, FoxP3 staining and IL-10 ELISA; assay type: cell-based, mouse
Description: Balb/c mice were euthanized and splenic CD4+CD62L+ T cells were magnetically enriched (Miltenyi Biotec) to >95% purity and cultured in DMEM media on plates pre-coated with anti-CD3 and anti-CD28 antibodies (clones 145-2C11 and 37.51; BioXCell). Culture media was supplemented with 10 μg/mL anti-IL-4 (clone 11B11; BioXCell), anti-IL-12 (clone C17.8; BioXCell), and anti-IFNγ (clone XMG1.2; BioXCell) as well as TGFβ (2 ng/mL; PeproTech). HG-9-91-01 (100 nM) or DMSO were added at day 0. Cultures were fed with DMEM+IL-2 (10 ng/mL, Peprotech) containing small molecules at day 2 and analyzed at day 4. Cells were stained with blue LIVE/DEADAqua stain (Invitrogen) to discriminate live cells, fixed with Foxp3 Permeabilization Buffer (eBioscience), stained with FITC anti-CD4 (clone RM4-5, Biolegend) and PE anti-Foxp3 (clone FJK-16S, eBioscience) and acquired on a FACSVerse (BD Biosciences). For Th0 and Tr1 differentiations, C57BL/6 mice were euthanized and splenic CD4+CD62L+ T cells were magnetically enriched (Miltenyi Biotec) to >95% purity and cultured in DMEM media on plates pre-coated with anti-CD3 and anti-CD28 antibodies (clones 145-2C11 and 37.51; BioXCell) in the absence of neutralizing antibodies. For Tr1 differentiations, the culture media was supplement with TGFβ (2 ng/mL; PeproTech) and rIL-27 (25 ng/mL; R&D Systems) as described previously (Gagliani N, et al. (2013) Coexpression of CD49b and LAG-3 identifies human and mouse T regulatory type 1 cells. Nature medicine 19(6):739-746). After 4 days, cells were harvested, washed in PBS and stained with LIVE/DEADGreen to discriminate viable cells and eFluor450 anti-CD4 (BioLegend) and acquired on a FACSVerse (BD Biosciences). Absolute cell numbers were enumerated by adding 5000 […] beads (Spherotech) to each well. Analysis was performed using Flowjo (Treestar) excluding samples were significant toxicity was observed. For all differentiation conditions, IL-10 levels were quantified in the culture media at day 4 by ELISA (BD Biosciences).

[2] = test system: CD11c+ CX3CR1hi myeloid cells and CD11c+ CX3CR1− DCs from the small intestine; test: Cytokine production by lamina propria gut myeloid cells; assay type: cell-based, mouse; details: 0.3 μM, 30 min pre-treatment
Description: Bone marrow-derived DCs were differentiated from C57BL/6 bone marrow in the presence of GM-CSF-conditioned media. CD11c^+ CX3CR1^hi myeloid cells and CD11c^+ CX3CR1^− DCs were isolated from the small intestine lamina propria of Cx3cr1^eGFP/+ mice (12). Detection of cell-surface Thy1.1 expression on BMDCs from 10BiT reporter mice was conducted as described previously (24). Cell viability was estimated by change in total cellular ATP levels using CellTiterGlo assays (Promega). Preparation of recombinant SIK proteins and IC50 measurements were conducted as described previously (21). Total RNA was extracted using a NucleoSpin 96 RNA isolation kit (Macherey-Nagel) followed by cDNA synthesis and multiplex RT-PCR using a microfluidic dynamic array (Fluidigm). The concentrations of TNF-α, IL-6, IL-10, IL-12p40, IL-1β and RANTES in culture supernatants were detected using a FlexSet Cytometric bead array (BD Biosciences). Alternatively, IL-10 secretion was quantified using ELISA (BD Biosciences) or AlphaLISA (PerkinElmer) assays. NO production was estimated based on nitrate content in culture medium using the Greiss reagent.
After stimulation of cells with microbial ligands, the culture medium was removed, clarified by centrifugation for 10 min at 14,000×g, and the concentration of TNF-α, IL-6, IL-10, IL-12p40, IL-1β and RANTES were measured using FlexSet Cytokine Bead Array (BD Biosciences) according to the manufacturer's instructions. Where indicated, ELISAs were used to detect IL-10 and IL-12p70 (BD Biosciences) according to the manufacturer's instructions. NO production was estimated based on nitrate content in culture medium using the Greiss reagent as described previously (Miletic A V, et al. (2007) Vav proteins control MyD88-dependent oxidative burst. Blood 109(8):3360-3368).
CX3CR1GFP/+ mice were euthanized and intestines cut into 3-4 pieces before inversion onto polyethylene tubes (Becton Dickinson). Intestinal fragments were washed with calcium- and magnesium-free PBS (Lonza), and mucus was removed with 1 mM DTT. […]

Compound: COc1ccc(N(C(=O)Nc2c(C)cccc2C)c2cc(Nc3ccc(N4CCN(C)CC4)cc3)ncn2)c(OC)c1 [HG-9-91-01]
- fraction of Foxp3+ cells and IL-10 secretion of Treg's ([1]; 100 nM, 4 days): did not increase the fraction of Foxp3^+ cells or promote IL-10 secretion
- concentrations toxic in Treg's and Tr1 cells ([1]; 4 days differentiation): greater than 0.5 μM
- IL-10 secretion by Tr1 cells ([1]; non-toxic concentrations, 4 days): not further enhanced
- IL-10 production by CD11c+ CX3CR1hi cells ([2]; LPS or zymosan 18 hr): enhanced IL-10 production
- secretion of TNF-α by gut myeloid cell subsets ([2]; both subsets): reduced secretion of TNF-α
- production of IL-6 or RANTES by gut myeloid cell subsets ([2]; either subset): not affected
